This is an account of results in patent US7332480B2, “Compositions for the regulation of cytokine activity” (Yeda Research and Development Co. Ltd., priority 1992, dated 2008).

Experiment [1] relates to adjuvant arthritis. Nature of the experiment: Adjuvant arthritis (AA) in rats. The format is in vivo, Lewis rats.
The subject of experiment [2] is secretion of active TNF-α by activated human CD4+ T cells. Nature of the experiment: Bioassay of TNF-α activity using human CD4+ T cells derived from PBLs (human PBL bioassay). The experiment is classed as cell-based. Particulars: Table XXIII; conc range of 1 μg/ml-0.01 pg/ml; inconsistent = same result not obtained for all three bioassays. The text has this: Non adherent cells were eluted and washed.
Nophar, Y. et al. J. Immunol. (1988) 140 (10):3456-3460.

In experiment [3] the test system is skin graft rejection. Put plainly: Skin allograft rejection in mice. The format is in vivo, BALB/c mice. The conditions noted are these: 300 ng/mouse s.c. one day before grafting and weekly thereafter. How it is done: The effect of H-9392 was also tested in skin graft rejection experiments in mice. In particular, skin grafts from C57BL/6 donor mice (H-2^b) were applied to recipient BALB/c mice (H-2^d) according to the method of Baharav, E. et al. J. Immunol. Methods (1986) 90:143-144. The number of days to rejection was measured by the sloughing of the graft. The number of days to rejection was determined for a control group (injected with saline only, 0.1 ml), and test groups that received 3 ng or 300 ng of H-9392 by subcutaneous injection one day before grafting and weekly thereafter. The results, which are graphically represented in FIGS. 40 and 40A, reveal that the 3 ng/mouse dose delayed the level of skin graft rejection at 50% by 5 days!

Experiment [4] has as its system experimental allergic asthma. Nature of the experiment: Experimental allergic bronchial asthma in rats. The conditions noted are these: 30 ng s.c. on day 30, challenge on day 35; saline animals Grade 3 or 4. The experiment is classed as in vivo, Brown Norway rats. How it is done: Experimental allergic bronchial asthma is an immediate type hypersensitivity reaction in rats which have been immunized and then rechallenged by inhalation of the priming antigen in a aerosolized solution. (Edelman, et al., Am. Rev. Resp. Dis. (1988) 137:1033-37). The etiology and pathophysiology of this experimental disease closely parallel the naturally occurring human counterpart. […] V.), on day zero. Subsequent challenges consisted of a 5 minute period of inhalation of OVA (1 mg/ml solution) aerosolized in a Devilbiss Nebulizer operated at an airflow of 6 L/min. Respiratory Distress (RD) responses were scored as Grade 0, no signs of distress; Grade 1, tachypnea; Grade 2, moderate labored breathing; Grade 3 severe labored breathing with mouth open; Grade 4, loss of consciousness and muscular tone. Sixteen days following primary immunization all animals were exposed to an initial aerosolized challenge to establish the positive control. The animals were coded so that the observer was ignorant of the subject animal's history. […] On day thirty, the animals were divided into 2 groups and given either saline (control Group A) or 30 ng of substance H-9392, s.c., (Group B) and challenged on day 35 as above.

In experiment [5] the test system is IDDM of NOD mice. Nature of the experiment: Insulin dependent diabetes mellitus (IDDM) of NOD mice. The format is in vivo. The conditions noted are these: H-9392 30 ng, glucosamine 10,000 ng; all the control mice had died (FIG. 41A).
Experiment [6] relates to mortality after irradiation. Nature of the experiment: Radioprotective effects in gamma-irradiated mice. The experiment is classed as in vivo, BALB/c mice. Particulars: 750 rads, three administrations. How it is done: Groups of female BALB/c mice, 8 weeks old, 5-10 mice per group, were injected subcutaneously with either saline (0.1 ml, control), H-9392 (30 ng/mouse), or glucosamine (10,000 ng/mouse) 1 day before irradiation, and weekly thereafter until termination of the experiment on day 30. All the mice were irradiated to a dose of 700 rads using a ^60Co gamma radiation source.
The mortality within the different groups of mice was then scored over a 30 day period. […] The group of mice which had been injected with glucosamine also fared better than the control group, showing a 20% mortality rate in the same period.
In a separate experiment, groups of BALB/c mice (5 mice to a group) were likewise exposed to 750 rads of gamma-rays, except that these groups of mice were treated with test substances (saline at 0.1 ml per mouse; H-9392 at 0.3, 3, 30 and 300 ng/mouse; and glucosamine at 1, 10 and 100 μg/mouse) on the day before irradiation, on the sixth day after irradiation, and once again on the thirteenth day after irradiation only. All treatment ceased after the third and last administration.

For the compound `O=C(O)C1=C[C@H](O)[C@@H](OS(=O)(=O)O)[C@H](O[C@H]2[C@H](O)[C@@H](NS(=O)(=O)O)C(O)O[C@@H]2CO)O1` (stereo partly drawn) [H-9392, 2-O-Sulfate-4-deoxy-4-en-iduronic acid-(α-1,4)-2-deoxy-2-N-sulfateglucosamine], the “course of AA after treatment was ended” value in experiment [1] (treatment from day 12, dexamethasone phosphate daily or weekly, disaccharide weekly) is reported as “continued to exhibit improved AA scores”. In addition, the “effect on severity of AA” value in experiment [1] (weekly or daily, beginning at day 0 or at day 12 (FIGS. 38D, 38E)) is listed as “positive suppression of the severity of AA in all cases”. Moreover, in experiment [1] (weekly s.c. from day 12, dexamethasone phosphate 100 μg or disaccharide 120 ng per rat (FIG. 38G)), the “severity of the AA score at 30 days post-induction” value is listed as “almost complete suppression”. The “Bioassay of TNF Activity” value in experiment [2] is listed as “Inconsistent”. Moreover, the “difference at 50% rejection relative to control” value in experiment [3] is given as “failed to produce a significant difference”. Further, in experiment [4], the “respiratory distress after secondary challenge” value is “mere tachypnea”. Moreover, the “mice died by age 5 months” value in experiment [5] is given as “none”. Moreover, in experiment [6] (30 ng/mouse, 5 mice to a group), the “mice died by the thirtieth day after irradiation” value is on record as “one”. Further, in experiment [6] (300 ng H-9392, 1 μg glucosamine), the “activity in suppressing mortality after irradiation” value is “moderate activity”.
